We go through six cell lines from the supplement of paper PMC10307832.

What all share (test): relative viability (nuclei count vs DMSO), 5 days (fraction); higher = more cells survive
Compound in the test “AZD5582 + Lapatinib”: C[C@@H](C(=O)N[C@@H](C1CCCCC1)C(=O)N2CCC[C@H]2C(=O)N[C@@H]3[C@@H](CC4=CC=CC=C34)OCC#CC#CCO[C@@H]5CC6=CC=CC=C6[C@@H]5NC(=O)[C@@H]7CCCN7C(=O)[C@H](C8CCCCC8)NC(=O)[C@H](C)NC)NC [AZD5582] + CS(=O)(=O)CCNCc1ccc(-c2ccc3ncnc(Nc4ccc(OCc5cccc(F)c5)c(Cl)c4)c3c2)o1 [Lapatinib] (partner 2 µM)
A digest of the protocol: (§1)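 Five library-drug doses in √10 steps were combined with a fixed anchor-drug dose, or a single drug was given alone, by pin tool to lung cancer cell lines in 1536-well plates the day after seeding. Nuclei were stained and counted after 5 days. Relative viability is the nuclei count in treated wells over that in vehicle wells, taken as the median of duplicate plates.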

Compound in test [1]: Cn1nnc2c(C(N)=O)ncn2c1=O [Temozolomide] + C[C@@H](Oc1cc(-c2cnn(C3CCNCC3)c2)cnc1N)c1c(Cl)ccc(F)c1Cl [Crizotinib] (partner 1 µM)
In outline: as §1

Compound in test [2]: Cn1nnc2c(C(N)=O)ncn2c1=O [Temozolomide] + Nc1ncn([C@H]2C[C@H](O)[C@@H](CO)O2)c(=O)n1 [Decitabine] (partner 2 µM)
In outline: as §1

Compound in the test “Temozolomide + Olaparib”: Cn1nnc2c(C(N)=O)ncn2c1=O [Temozolomide] + O=C(c1cc(Cc2n[nH]c(=O)c3ccccc23)ccc1F)N1CCN(C(=O)C2CC2)CC1 [Olaparib] (partner 8 µM)
In outline: as §1

For the cell line HCC-366, the relative viability amounted to 0.936 with AZD5582 + Lapatinib (first compound 0.001581 µM); 1.05 with AZD5582 + Lapatinib (first compound 0.005 µM); 0.961 with AZD5582 + Lapatinib (first compound 0.01581 µM); 1.08 with AZD5582 + Lapatinib (first compound 0.05 µM); 0.519 in test [1] (first compound 0.2 µM); 0.604 in test [1] (first compound 0.6325 µM). In addition, the relative viability stood at 0.402 in test [1] (first compound 2 µM); 0.622 in test [1] (first compound 6.325 µM); 0.447 in test [1] (first compound 20 µM); 0.297 in test [2] (first compound 0.2 µM); 0.386 in test [2] (first compound 0.6325 µM); 0.384 in test [2] (first compound 2 µM). The relative viability in test [2] (first compound 6.325 µM) stood at 0.304; in test [2] (first compound 20 µM), 0.337; with Temozolomide + Olaparib (first compound 0.2 µM), 0.413; with Temozolomide + Olaparib (first compound 0.6325 µM), 0.344; with Temozolomide + Olaparib (first compound 2 µM), 0.318; in the test with Temozolomide + Olaparib (first compound 6.325 µM) it was 0.311. In the test with Temozolomide + Olaparib (first compound 20 µM), the relative viability came out at 0.17.
In the case of NCI-H2170, the relative viability stood at 0.278 with AZD5582 + Lapatinib (first compound 0.001581 µM); 0.288 in the test with AZD5582 + Lapatinib (first compound 0.005 µM); 0.293 in the test with AZD5582 + Lapatinib (first compound 0.01581 µM); 0.274 in the test with AZD5582 + Lapatinib (first compound 0.05 µM); 1.26 in test [1] (first compound 0.6325 µM); 1.21 in test [1] (first compound 2 µM). Also, the relative viability was 0.999 in test [1] (first compound 6.325 µM); 0.494 in test [1] (first compound 20 µM); 0.511 in test [2] (first compound 0.6325 µM); 0.45 in test [2] (first compound 2 µM); 0.383 in test [2] (first compound 6.325 µM); 0.268 in test [2] (first compound 20 µM). In addition, the relative viability with Temozolomide + Olaparib (first compound 0.6325 µM) was 0.514; in the test with Temozolomide + Olaparib (first compound 2 µM), 0.466; with Temozolomide + Olaparib (first compound 6.325 µM), 0.245; with Temozolomide + Olaparib (first compound 20 µM), 0.137.
With HOP-62, the relative viability with AZD5582 + Lapatinib (first compound 0.001581 µM) is 0.748; with AZD5582 + Lapatinib (first compound 0.005 µM), 1.06; with AZD5582 + Lapatinib (first compound 0.01581 µM), 1.02; in the test with AZD5582 + Lapatinib (first compound 0.05 µM) it was 0.958; in test [1] (first compound 0.2 µM) it was 1.12; in test [1] (first compound 0.6325 µM) it was 0.991. The relative viability is 1.05 in test [1] (first compound 2 µM); 0.801 in test [1] (first compound 6.325 µM); 0.965 in test [1] (first compound 20 µM); 0.214 in test [2] (first compound 0.2 µM); 0.247 in test [2] (first compound 0.6325 µM); 0.226 in test [2] (first compound 2 µM). For the same cell line, the relative viability in test [2] (first compound 6.325 µM) is 0.19; in test [2] (first compound 20 µM), 0.188; with Temozolomide + Olaparib (first compound 0.2 µM) it was 0.407; in the test with Temozolomide + Olaparib (first compound 0.6325 µM), 0.31; with Temozolomide + Olaparib (first compound 2 µM), 0.429; in the test with Temozolomide + Olaparib (first compound 6.325 µM) it was 0.277. The relative viability with Temozolomide + Olaparib (first compound 20 µM) was determined as 0.129.
Consider NCI-H322M, for which the relative viability in the test with AZD5582 + Lapatinib (first compound 0.001581 µM) was found to be 0.678; in the test with AZD5582 + Lapatinib (first compound 0.005 µM) it was 0.796; with AZD5582 + Lapatinib (first compound 0.01581 µM), 0.619; with AZD5582 + Lapatinib (first compound 0.05 µM), 0.774; in test [1] (first compound 0.6325 µM), 0.976; in test [1] (first compound 2 µM) it was 1. Besides, the relative viability was 0.882 in test [1] (first compound 6.325 µM); 0.715 in test [1] (first compound 20 µM); 0.619 in test [2] (first compound 0.2 µM); 0.704 in test [2] (first compound 0.6325 µM); 0.697 in test [2] (first compound 2 µM); 0.717 in test [2] (first compound 6.325 µM). Moreover, the relative viability was 0.576 in test [2] (first compound 20 µM); 0.671 with Temozolomide + Olaparib (first compound 0.2 µM); 0.734 with Temozolomide + Olaparib (first compound 0.6325 µM); 0.727 in the test with Temozolomide + Olaparib (first compound 2 µM); 0.692 with Temozolomide + Olaparib (first compound 6.325 µM); 0.555 with Temozolomide + Olaparib (first compound 20 µM).
For the cell line NCI-H661, the relative viability amounted to 0.38 with AZD5582 + Lapatinib (first compound 0.001581 µM); 0.561 in the test with AZD5582 + Lapatinib (first compound 0.005 µM); 0.53 in the test with AZD5582 + Lapatinib (first compound 0.01581 µM); 0.716 with AZD5582 + Lapatinib (first compound 0.05 µM); 0.828 in test [1] (first compound 0.2 µM); 0.93 in test [1] (first compound 0.6325 µM). The relative viability in test [1] (first compound 2 µM) came to 0.942; in test [1] (first compound 6.325 µM) it was 0.944; in test [1] (first compound 20 µM), 1.02; in test [2] (first compound 0.2 µM) it was 0.527; in test [2] (first compound 0.6325 µM) it was 0.598; in test [2] (first compound 2 µM), 0.632. Also, the relative viability was found to be 0.495 in test [2] (first compound 6.325 µM); 0.545 in test [2] (first compound 20 µM); 0.744 with Temozolomide + Olaparib (first compound 0.2 µM); 0.735 with Temozolomide + Olaparib (first compound 0.6325 µM); 0.731 in the test with Temozolomide + Olaparib (first compound 2 µM); 0.634 in the test with Temozolomide + Olaparib (first compound 6.325 µM). For the same cell line, the relative viability with Temozolomide + Olaparib (first compound 20 µM) came out at 0.551.
As to NCI-H650, the relative viability with AZD5582 + Lapatinib (first compound 0.001581 µM) was 0.592; with AZD5582 + Lapatinib (first compound 0.005 µM), 0.787; with AZD5582 + Lapatinib (first compound 0.01581 µM), 0.428; in the test with AZD5582 + Lapatinib (first compound 0.05 µM) it was 0.606; in test [1] (first compound 0.2 µM) it was 0.679; in test [1] (first compound 0.6325 µM), 0.697. The relative viability was determined as 0.607 in test [1] (first compound 2 µM); 0.725 in test [1] (first compound 6.325 µM); 0.669 in test [1] (first compound 20 µM); 0.355 in test [2] (first compound 0.2 µM); 0.319 in test [2] (first compound 0.6325 µM); 0.348 in test [2] (first compound 2 µM). For the same cell line, the relative viability in test [2] (first compound 6.325 µM) is 0.303; in test [2] (first compound 20 µM), 0.339; with Temozolomide + Olaparib (first compound 0.2 µM), 0.387; with Temozolomide + Olaparib (first compound 0.6325 µM), 0.39; with Temozolomide + Olaparib (first compound 2 µM), 0.358; with Temozolomide + Olaparib (first compound 6.325 µM), 0.274. In the test with Temozolomide + Olaparib (first compound 20 µM), the relative viability was 0.202.
